This note sets out measurements from patent US8361740B2, “Peptide standards” (King's College London, priority 2007, dated 2013).

Non-standard residues stand in square brackets, D forms with d. No end group written: not given here. K∗ = stable isotope labelled lysine

This test has as its system trypsin. Kind of test: Tryptic digestion of peptide standards, released T6 peptide (LVNEVTEFAK) measured by LC-MSMS (MRM). Format: biochemical. The settings on record: for IS Peak Area (counts): LVNEVTEFAK* signal, internal std + digested peptide 8; for Analyte Peak Area (counts): trypsin 37° C. 30 min. The text has this: The first experiment was test the hypothesis that the LVNEVTEFAKT (SEQ ID NO:7) peptide is cleaved to LVNEVTEFAK (SEQ ID NO:10) by trypsin as efficiently as the longer peptides. Using LVNEVTEFAK* (SEQ ID NO:10) as the internal standard peptides (1-5, and 8) were digested using standard protocol. […] This implies that any internal standard peptide where cysteine is the N-terminal amino acid will require the next amino acid in addition to be effective.
Experiment to Determine Number of Amino Acids Required Following Trypsin Digest Site for Digestion.
Assay 50 μl peptide 1-6 & 8 (blank was deionised water)+50 μl internal std Add 10 μl acetonitrile & 10 μl 1% formic acid, vortex mix, and stand for 5 min Add 6 μl […] ammonium bicarbonate & 5 μl trypsin (5 mg/l), vortex mix, and pulse centrifuge (6 sec) Incubate at 37° C. for 30 min & add 500 μl HPLC solvent (acetonitrile:water 1:1 with 0.025% formic acid) Vortex mix and transfer to 96-deep well polypropylene plate Sample volume, 5 μl; flow rate, 500 μl/min Chromatography—teicoplanin guard column MSMS parameters—generic peptide ionisation and doubly charged ion fragmentation T6 doubly charged ion m/z 575.4 and internal std m/z 579.4 Product ions (m/z): 937.4, 823.4, 694.4—internal std (m/z): 945.4, 831.4, 702.4 (150 ms/MRM) Results

As for “LVNEVTEFAK*T (LVNEVTEFA[K∗]T) [peptide 8]”, the “signal for LVNEVTEFAK after tryptic digestion” value (3 different MRMs, LVNEVTEFAK* as internal standard) was “no signal”. Further, under “LVNEVTEFAK* as internal standard”, the “LVNEVTEFAK* signal after tryptic digestion” value is recorded as “increased by the expected amount”. Further, the “Internal standard area Ratio (IS + peptide 8 / Mean (Blank, 1-6))” value (T6 694) is on record as 1.87; the “Internal standard area Ratio (IS + peptide 8 / Mean (Blank, 1-6))” value (T6 823) came out at 1.80; the “Internal standard area Ratio (IS + peptide 8 / Mean (Blank, 1-6))” value (T6 937) was determined as 1.91. In addition, the “IS Peak Area (counts)” value is, setting by setting: (T6 694 transition) 238000 counts; (T6 823 transition) 83000 counts; (T6 937 transition) 253000 counts. The “Analyte Peak Area (counts)” value is, setting by setting: (analyte T6 694 (m/z 575.4/694.4)) 149 counts; (analyte T6 823 (m/z 575.4/823.4)) 62 counts; (analyte T6 937 (m/z 575.4/937.4)) 147 counts. In addition, the “Area Ratio” value was 0.00062 (analyte T6 694 / internal std LVNEVTEFAK*), 0.00074 (analyte T6 823 / internal std LVNEVTEFAK*) and 0.00058 (analyte T6 937 / internal std LVNEVTEFAK*). Where the note is “within the limits of the experiment”, the “recovery after tryptic digestion” value is given as “full recovery”.
